Laboratory results reported in patent publication US20250367185A1, “TRANSLESION SYNTHESIS POLYMERASE INHIBITORS AND USES THEREOF” (THE UNIVERSITY OF VERMONT AND STATE AGRICULTURAL COLLEGE, priority 2022, published 2025).

System: HPRT (hypoxanthine phosphoribosyltransferase) gene in A549-ACE2+ cells infected with SARS-COV-2
Experiment: HPRT mutagenesis in SARS-COV-2 infected cells
Format: cell-based

CC(C)CC(=O)c1c(Nc2ccc(C(=O)O)cc2Cl)[nH]c2c(Cl)ccc([N+](=O)[O-])c2c1=O [Compound 1, 3-chloro-4-((8-chloro-3-(3-methylbutanoyl)-5-nitro-4-oxo-1,4-dihydroquinolin-2-yl)amino)benzoic acid]
SARS-COV-2-dependent HPRT mutagenesis: suppress
